Test results taken from PMC4159282, “Gi Proteins Regulate Adenylyl Cyclase Activity Independent of Receptor Activation” (PLoS ONE, 2014).

Target: T1, β2-adrenoceptor (β2AR) (Rattus norvegicus, UniProt P10608)
T1 construct: gene Adrb2
T1 sequence (P10608 whole entry): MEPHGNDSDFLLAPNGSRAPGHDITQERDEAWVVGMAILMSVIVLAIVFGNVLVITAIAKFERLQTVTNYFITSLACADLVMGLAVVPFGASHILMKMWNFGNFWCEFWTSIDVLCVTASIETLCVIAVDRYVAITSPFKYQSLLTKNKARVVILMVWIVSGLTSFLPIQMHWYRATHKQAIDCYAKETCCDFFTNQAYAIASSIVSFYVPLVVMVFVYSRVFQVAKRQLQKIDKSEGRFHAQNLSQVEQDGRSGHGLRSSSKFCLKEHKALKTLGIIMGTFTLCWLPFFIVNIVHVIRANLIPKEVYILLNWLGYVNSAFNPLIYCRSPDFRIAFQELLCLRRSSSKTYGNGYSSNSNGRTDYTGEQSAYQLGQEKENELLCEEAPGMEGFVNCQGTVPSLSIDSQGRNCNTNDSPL

| Compound | EC50 |
| --- | --- |
| C[C@@H](Cc1ccc(O)cc1)NC[C@H](O)c1cc(O)cc(O)c1 (racemic) [RS, (R,S)-fenoterol] | 3.5 ± 0.5 µM |
| C[C@H](Cc1ccc(O)cc1)NC[C@H](O)c1cc(O)cc(O)c1 [RR, (R,R)-fenoterol] | 0.14 ± 0.048 µM |
